Values of other authors, collected in US7335681B2, “Amino ceramide-like compounds and therapeutic methods of use” (The Regents of the University of Michigan, priority 2001, dated 2008).

Columns and labels:
GlcCer = details: in vivo
[1] = test system: Ehrlich ascites carcinoma cells
E. coli = details: PDMP treatment

| Structure (SMILES) | tissue levels of GlcCer (GlcCer) | cellular content of PKC (PKC) | antitumor effect in mice [1] | adherence of E. coli to mammalian cells (E. coli) |
| --- | --- | --- | --- | --- |
| CN(C)CCCN1c2ccccc2Sc2ccc(Cl)cc21 [chlorpromazine] | lower tissue levels of GlcCer | – | – | – |
| CCCCCCCCCC(=O)N[C@H](CN1CCOCC1)[C@H](O)c1ccccc1 [PDMP, 1R-phenyl-2R-decanoylamino-3-morpholino-1-propanol] | – | lower the cellular content of PKC | cure mice of cancer | reduces the adherence |
